Among the test systems are HCT-15 colon; EKVX NSCLC; HS 578T breast; M14 melanoma; HCT-116 colon; MCF7 breast; T-47D breast; SNB-75 CNS; HL-60(TB) leukemia; SF-539 CNS.
What all share (test): DTP human tumour cell line panel, 48 h

The structures appear in SMILES notation.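 A five-concentration, 48-hour dose response in 96-well plates underlies each endpoint, interpolated linearly between surrounding concentrations. The concentration for 50% growth inhibition is given as GI50. TGI denotes the concentration required for complete inhibition of growth.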

Regarding `CCOC(=O)c1c[nH]c2c(OCc3ccccc3)c3ccccc3c(O)c2c1=O`, the GI50 in the assay with HCT-15 colon is 11.1 µM; in the assay with EKVX NSCLC it was 6.98 µM; in the assay on HS 578T breast it was 13.5 µM; in the assay with M14 melanoma, 11.3 µM; with HCT-116 colon it was 3.74 µM; in the assay with MCF7 breast it was 9.55 µM. Further, the GI50 was 18.5 µM in the assay with T-47D breast, 11.6 µM with SNB-75 CNS, 40.7 µM in the assay with HL-60(TB) leukemia and 2.53 µM in the assay with SF-539 CNS. The TGI with HCT-15 colon was greater than 100 µM; in the assay on EKVX NSCLC it was 52.7 µM; with HS 578T breast, 48 µM; in the assay with M14 melanoma, greater than 59.4 µM; in the assay on HCT-116 colon, greater than 51.8 µM; with MCF7 breast, greater than 67.4 µM. Besides, the concentration for total growth inhibition (TGI) was 69.6 µM with T-47D breast, greater than 54.4 µM with SNB-75 CNS, greater than 100 µM with HL-60(TB) leukemia and 11.2 µM with SF-539 CNS.

Take `CN(C)c1ccc(/C=C(\C#N)c2cc3ccccc3n2C)cc1`: the GI50 in the assay on HCT-15 colon was 0.0687 µM; in the assay on EKVX NSCLC, 0.636 µM; with HS 578T breast, 0.361 µM; in the assay on M14 melanoma, 0.075 µM; with HCT-116 colon, 0.101 µM; with MCF7 breast, 0.0379 µM. Moreover, the GI50 is 0.204 µM in the assay on T-47D breast, 0.0562 µM with SNB-75 CNS, 0.0931 µM with HL-60(TB) leukemia and 0.208 µM in the assay with SF-539 CNS. Moreover, the TGI with HCT-15 colon, in the assay on EKVX NSCLC, with HS 578T breast, in the assay on M14 melanoma, with HCT-116 colon and in the assay with MCF7 breast was greater than 100 µM each time. The concentration for total growth inhibition (TGI) in the assay with T-47D breast was greater than 100 µM; in the assay with SNB-75 CNS, 1.75 µM; with SF-539 CNS, 0.713 µM.

For `CCCCCCCCCCCC1=NC(C)(C)CN1CCO`, the GI50 with HCT-15 colon is 1.98 µM; in the assay with EKVX NSCLC it was 10.7 µM; in the assay with HS 578T breast, 7.51 µM; in the assay with M14 melanoma, 1.92 µM; in the assay on HCT-116 colon, 1.94 µM; with MCF7 breast, 2.41 µM. Further, the GI50 with T-47D breast was 4.04 µM; in the assay with SNB-75 CNS it was 7.93 µM; in the assay with HL-60(TB) leukemia, 3.3 µM; in the assay on SF-539 CNS, 4.37 µM. The TGI in the assay on HCT-15 colon was 4.42 µM; in the assay on EKVX NSCLC it was 29.5 µM; in the assay on HS 578T breast it was 25.6 µM; in the assay with M14 melanoma it was 3.74 µM; in the assay on HCT-116 colon, 3.76 µM; with MCF7 breast, 6.09 µM. The TGI in the assay with T-47D breast came out at 16.9 µM; with SNB-75 CNS it was 21.6 µM; in the assay on HL-60(TB) leukemia, 13.7 µM; with SF-539 CNS, 8.79 µM.

On to `O=C1Nc2ccccc2C1(c1ccc(O)c(F)c1)c1ccc(O)c(F)c1`, for which the GI50 was 8.34 µM with HCT-15 colon; 4.31 µM in the assay with EKVX NSCLC; 0.3 µM with HS 578T breast; 12 µM in the assay with M14 melanoma; 11.6 µM in the assay with HCT-116 colon; 0.27 µM with MCF7 breast. For the same molecule, the 50% growth inhibitory concentration (GI50) is 0.226 µM with T-47D breast, 0.661 µM in the assay on SNB-75 CNS, 15 µM in the assay with HL-60(TB) leukemia and 12.6 µM in the assay on SF-539 CNS. Also, the concentration for total growth inhibition (TGI) in the assay on HCT-15 colon stood at 34.4 µM; with EKVX NSCLC, 43.5 µM; in the assay on HS 578T breast it was 4.44 µM; in the assay on M14 melanoma, 65.5 µM; with HCT-116 colon, 52.7 µM; in the assay on MCF7 breast, 2.81 µM. The concentration for total growth inhibition (TGI) worked out at 0.622 µM in the assay with T-47D breast, 36.5 µM with SNB-75 CNS, 42.6 µM with HL-60(TB) leukemia and 36.8 µM with SF-539 CNS.

As for `CSC(=S)N/N=C/c1ccccc1`, the TGI with HCT-15 colon, with EKVX NSCLC, with HS 578T breast, in the assay with M14 melanoma, with HCT-116 colon and in the assay on MCF7 breast was greater than 100 µM each time. The TGI with T-47D breast is 72.1 µM; in the assay on SNB-75 CNS it was greater than 100 µM; in the assay on HL-60(TB) leukemia, greater than 100 µM; in the assay with SF-539 CNS, greater than 100 µM.

Consider `Fc1ccc(CNc2c3ccccc3nc3ccccc23)cc1`, for which the GI50 in the assay with HCT-15 colon is 1.98 µM; with EKVX NSCLC, 2.61 µM; in the assay with HS 578T breast, 3.05 µM; with M14 melanoma, 2.97 µM; with HCT-116 colon, 2.12 µM; in the assay on MCF7 breast, 1.79 µM. Moreover, the GI50 is 2.53 µM in the assay with T-47D breast, 2.01 µM with SNB-75 CNS, 2.9 µM with HL-60(TB) leukemia and 2.22 µM with SF-539 CNS. Moreover, the concentration for total growth inhibition (TGI) in the assay with HCT-15 colon worked out at 5.31 µM; in the assay with EKVX NSCLC, 11.4 µM; in the assay with HS 578T breast, 10.7 µM; in the assay on M14 melanoma it was 12.4 µM; in the assay on HCT-116 colon, 11.8 µM; in the assay with MCF7 breast, 4.97 µM. Moreover, the total growth inhibition concentration (TGI) in the assay with T-47D breast is 10 µM; in the assay with SNB-75 CNS it was 10.8 µM; with HL-60(TB) leukemia, 8.97 µM; with SF-539 CNS, 5.7 µM.

Consider `O=C(O)c1cc(N/C=C2\C(=O)c3ccccc3OC2O)ccc1O` (centres undefined), for which the GI50 was 15.7 µg/mL with HCT-15 colon; 24.3 µg/mL in the assay on EKVX NSCLC; 19.6 µg/mL in the assay with HS 578T breast; 25.4 µg/mL in the assay with M14 melanoma; 19.8 µg/mL with HCT-116 colon; 24.1 µg/mL with MCF7 breast. The GI50 in the assay with T-47D breast is 5.34 µg/mL; in the assay with SNB-75 CNS it was 25.2 µg/mL; with HL-60(TB) leukemia it was 9.18 µg/mL; in the assay on SF-539 CNS it was 16.7 µg/mL. For the same molecule, the total growth inhibition concentration (TGI) in the assay on HCT-15 colon stood at 44.7 µg/mL; in the assay with EKVX NSCLC, 78.5 µg/mL; with HS 578T breast, 140 µg/mL; in the assay with M14 melanoma, 66.1 µg/mL; with HCT-116 colon, 51 µg/mL; in the assay with MCF7 breast it was 115 µg/mL. For the same molecule, the TGI with T-47D breast was 46.2 µg/mL; in the assay with SNB-75 CNS, 129 µg/mL; in the assay with HL-60(TB) leukemia it was greater than 150 µg/mL; in the assay with SF-539 CNS, 43.9 µg/mL.

For orientation: GI50 means the concentration giving 50% growth inhibition. A word on the TGI: it is the concentration giving total growth inhibition. Higher therefore signals lower sensitivity of the cells.

For the origin of these results see PubChem BioAssay (NCI).
